Several values for one entry are separate records, joined by “and”; a condition that tells them apart may be missing. Equal values may be shown once.

This assay concerns the target T1, 5-hydroxytryptamine receptor 2C (Rattus norvegicus, UniProt P08909).
T1 sequence (P08909 whole entry): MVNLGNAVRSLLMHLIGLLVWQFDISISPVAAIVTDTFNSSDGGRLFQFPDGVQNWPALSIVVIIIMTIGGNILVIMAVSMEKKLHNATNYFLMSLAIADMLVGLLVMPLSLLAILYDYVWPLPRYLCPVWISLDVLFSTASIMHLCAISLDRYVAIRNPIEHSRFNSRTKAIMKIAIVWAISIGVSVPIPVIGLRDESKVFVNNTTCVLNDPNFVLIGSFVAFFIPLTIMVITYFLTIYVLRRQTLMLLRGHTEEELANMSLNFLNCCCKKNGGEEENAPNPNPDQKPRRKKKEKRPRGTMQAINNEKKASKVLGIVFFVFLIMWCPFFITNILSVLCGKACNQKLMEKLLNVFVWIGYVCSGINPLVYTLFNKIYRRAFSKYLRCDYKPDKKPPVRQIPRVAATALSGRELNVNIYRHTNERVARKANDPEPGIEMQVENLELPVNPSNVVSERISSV
The term Ki denotes a measure of affinity in units of concentration, obtained from inhibition or displacement. Higher therefore signals weaker binding. As for `CC[C@@H](CO)NC(=O)[C@@H]1C=C2c3cccc4c3c(cn4C)C[C@H]2N(C)C1`, the Ki was 0.8 nM and 1 nM.

For `c1ccc2nc(N3CCNCC3)ccc2c1` [2-Piperazin-1-yl-quinoline (Quipazine)], the Ki is 160 nM and 1340 nM.

As to `O=C(c1ccc(F)cc1)C1CCN(CCn2c(=O)[nH]c3ccccc3c2=O)CC1` [3-(2-{4-[(4-fluorophenyl)carbonyl]piperidin-1-yl}ethyl)-1,2,3,4-tetrahydroquinazoline-2,4-dione], the inhibition constant Ki is 103 nM and 94 nM.

In the case of `NCCc1c[nH]c2ccc(C(N)=O)cc12` [[3H]-5-carboxamidotryptamine], the Ki came out at 5810 nM.

These data come from BindingDB's records for doi:10.1111/j.1749-6632.1998.tb10185.x (Albany Medical College, 1998).
